Data taken from patent publication US11820766B2, “Monoacylglycerol lipase modulators” (Janssen Pharmaceutica NV, priority 2018, dated 2023).

target: T1, human MGL from HeLa cells (Homo sapiens, UniProt Q99685); assay: In vitro MGL activity assay: [glycerol-1,3-3H]-oleyl glycerol cleavage by MGL from HeLa cells; assay type: biochemical; settings: 300 nM [Glycerol-1,3-3H]-oleyl glycerol, one hour
T1 construct: combining endogenously expressed MGL from HeLa cells with test compounds; endogenous in cells; host or cells: HeLa cells / cell homogenates
T1 sequence (Q99685 1-303): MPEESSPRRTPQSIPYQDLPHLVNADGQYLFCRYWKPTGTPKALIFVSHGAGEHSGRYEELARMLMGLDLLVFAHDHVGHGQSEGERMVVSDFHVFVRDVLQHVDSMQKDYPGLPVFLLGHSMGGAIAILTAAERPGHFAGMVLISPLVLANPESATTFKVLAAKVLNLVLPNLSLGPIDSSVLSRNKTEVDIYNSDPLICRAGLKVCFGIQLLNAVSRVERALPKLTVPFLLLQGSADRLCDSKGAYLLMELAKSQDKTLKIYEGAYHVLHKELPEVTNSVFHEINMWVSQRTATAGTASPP
Text: MGL is the predominant hydrolase in HeLa cells/cell homogenates.

| Compound | IC50 [µM] |
| --- | --- |
| Cc1c(C(=O)N2CCc3c(nn(C)c3-c3cc(F)c(F)c(F)c3)[C@@H]2C)cnn1C [Example 345, (1,5-Dimethylpyrazol-4-yl)-[(7S)-2,7-dimethyl-3-(3,4,5-trifluorophenyl)-5,7-dihydro-4H-pyrazolo[3,4-c]pyridin-6-yl]methanone] | 0.0528 |
| Cc1nc2c(F)cc(F)cn2c1C(=O)N1CCc2c(nn(C)c2-c2cc(F)c(F)c(F)c2)[C@@H]1C [Example 410, (6,8-Difluoro-2-methyl-imidazo[1,2-a]pyridin-3-yl)-[(7S)-2,7-dimethyl-3-(3,4,5-trifluorophenyl)-5,7-dihydro-4H-pyrazolo[3,4-c]pyridin-6-yl]methanone] | 0.173 |
| Cc1nn(C)c(C)c1C(=O)N1CCc2c(nn(C)c2-c2cc(F)c(F)c(F)c2)[C@@H]1C [Example 344, [(7S)-2,7-Dimethyl-3-(3,4,5-trifluorophenyl)-5,7-dihydro-4H-pyrazolo[3,4-c]pyridin-6-yl]-(1,3,5-trimethylpyrazol-4-yl)methanone] | 0.0581 |
| C[C@H]1c2nn(C)c(-c3cc(F)c(F)c(F)c3)c2CCN1C(=O)c1nc(C(F)(F)F)n2ccncc12 [Example 463, [(7S)-2,7-Dimethyl-3-(3,4,5-trifluorophenyl)-5,7-dihydro-4H-pyrazolo[3,4-c]pyridin-6-yl]-[3-(trifluoromethyl)imidazo[1,5-a]pyrazin-1-yl]methanone] | 0.0198 |
| C[C@H]1c2nn(C)c(-c3cc(F)c(F)c(F)c3)c2CCN1C(=O)c1cn(C)nc1C1(C)CC1 [Example 347, [(7S)-2,7-Dimethyl-3-(3,4,5-trifluorophenyl)-5,7-dihydro-4H-pyrazolo[3,4-c]pyridin-6-yl]-[1-methyl-3-(1-methylcyclopropyl)pyrazol-4-yl]methanone] | 2.49 |
| COc1ccnc(C(=O)N2CCc3c(nn(C)c3-c3cc(F)cc(OC(F)F)c3)[C@@H]2C)c1Cl [Example 612, (3-Chloro-4-methoxy-2-pyridyl)-[(7S)-3-[3-(difluoromethoxy)-5-fluoro-phenyl]-2,7-dimethyl-5,7-dihydro-4H-pyrazolo[3,4-c]pyridin-6-yl]methanone] | 0.0298 |
| C[C@H]1c2nn(C)c(-c3cncc(OC(F)F)c3)c2CCN1C(=O)c1ccc2ncccc2c1 [Example 528, [(7S)-3-[5-(Difluoromethoxy)-3-pyridyl]-2,7-dimethyl-5,7-dihydro-4H-pyrazolo[3,4-c]pyridin-6-yl]-(6-quinolyl)methanone] | 0.397 |
| C[C@H]1c2nn(C)c(-c3cc(F)c(F)c(F)c3)c2CCN1C(=O)c1ccnc2c1OCCC2 [Example 568, 3,4-Dihydro-2H-pyrano[3,2-b]pyridin-8-yl-[(7S)-2,7-dimethyl-3-(3,4,5-trifluorophenyl)-5,7-dihydro-4H-pyrazolo[3,4-c]pyridin-6-yl]methanone] | 0.00968 |
| C[C@H]1c2nn(C)c(-c3cc(F)c(F)c(F)c3)c2CCN1C(=O)c1nccc2cn(C)nc12 [Example 429, [(7S)-2,7-Dimethyl-3-(3,4,5-trifluorophenyl)-5,7-dihydro-4H-pyrazolo[3,4-c]pyridin-6-yl]-(2-methylpyrazolo[3,4-c]pyridin-7-yl)methanone] | 0.412 |
| C[C@H]1c2nn(C)c(-c3cc(F)c(F)c(F)c3)c2CCN1C(=O)c1cnc2n1CCC2 [Example 559, 6,7-Dihydro-5H-pyrrolo[1,2-a]imidazol-3-yl-[(7S)-2,7-dimethyl-3-(3,4,5-trifluorophenyl)-5,7-dihydro-4H-pyrazolo[3,4-c]pyridin-6-yl]methanone] | 0.294 |
| C[C@H]1c2nn(C)c(-c3cc(F)c(F)c(F)c3)c2CCN1C(=O)c1n[nH]c2cccc(F)c12 [Example 362, [(7S)-2,7-Dimethyl-3-(3,4,5-trifluorophenyl)-5,7-dihydro-4H-pyrazolo[3,4-c]pyridin-6-yl]-(4-fluoro-1H-indazol-3-yl)methanone] | 0.00274 |
| C[C@H]1c2nn(C)c(-c3cc(F)c(F)c(F)c3)c2CCN1C(=O)c1cccc2c1CCOC2 [Example 576, [(7S)-2,7-Dimethyl-3-(3,4,5-trifluorophenyl)-5,7-dihydro-4H-pyrazolo[3,4-c]pyridin-6-yl]-isochroman-5-yl-methanone] | 0.0189 |
| C[C@H]1c2nn(C)c(-c3ccc(OC(F)F)nc3)c2CCN1C(=O)c1ccc2ncccc2c1 [Example 527, [(7S)-3-[6-(Difluoromethoxy)-3-pyridyl]-2,7-dimethyl-5,7-dihydro-4H-pyrazolo[3,4-c]pyridin-6-yl]-(6-quinolyl)methanone] | 0.278 |
| Cc1cc2nccnc2cc1C(=O)N1CCc2c(nn(C)c2-c2cc(F)c(F)c(F)c2)[C@@H]1C [Example 473, [(7S)-2,7-Dimethyl-3-(3,4,5-trifluorophenyl)-5,7-dihydro-4H-pyrazolo[3,4-c]pyridin-6-yl]-(7-methylquinoxalin-6-yl) methanone] | 0.0307 |
| Cc1onc(C(=O)N2CCc3c(nn(C)c3-c3cc(F)c(F)c(F)c3)[C@@H]2C)c1C [Example 352, (4,5-Dimethylisoxazol-3-yl)-[(7S)-2,7-dimethyl-3-(3,4,5-trifluorophenyl)-5,7-dihydro-4H-pyrazolo[3,4-c]pyridin-6-yl]methanone] | 0.0305 |
| Cc1ccn2cnc(C(=O)N3CCc4c(nn(C)c4-c4cc(F)c(F)c(F)c4)[C@@H]3C)c2c1 [Example 419, [(7S)-2,7-Dimethyl-3-(3,4,5-trifluorophenyl)-5,7-dihydro-4H-pyrazolo[3,4-c]pyridin-6-yl]-(7-methylimidazo[1,5-a]pyridin-1-yl)methanone] | 0.192 |
| Cc1cc2nc(C)c(C(=O)N3CCc4c(nn(C)c4-c4cc(F)c(F)c(F)c4)[C@@H]3C)n2cc1F [Example 409, [(7S)-2,7-Dimethyl-3-(3,4,5-trifluorophenyl)-5,7-dihydro-4H-pyrazolo[3,4-c]pyridin-6-yl]-(6-fluoro-2,7-dimethyl-imidazo[1,2-a]pyridin-3-yl)methanone] | 0.0766 |
| C[C@H]1c2nn(C)c(-c3cc(F)c(F)c(F)c3)c2CCN1C(=O)c1nccn2cccc12 [Example 415, [(7S)-2,7-Dimethyl-3-(3,4,5-trifluorophenyl)-5,7-dihydro-4H-pyrazolo[3,4-c]pyridin-6-yl]-pyrrolo[1,2-a] pyrazin-1-yl-methanone] | 0.0133 |

same assay, conditions: 300 nM [Glycerol-1,3-3H]-oleyl glycerol, one hour incubation

| Compound | IC50 [µM] |
| --- | --- |
| COc1ccc(C(=O)N2CCc3c(nn(C)c3-c3cc(F)c(F)c(F)c3)[C@@H]2C)cc1-n1cnnc1 [Example 297, [(7S)-2,7-Dimethyl-3-(3,4,5-trifluorophenyl)-5,7-dihydro-4H-pyrazolo[3,4-c]pyridin-6-yl]-[4-methoxy-3-(1,2,4-triazol-4-yl)phenyl]methanone] | 0.923 |
| C[C@H]1c2nn(C)c(-c3cc(Cl)cc(Cl)c3)c2CCN1C(=O)c1ccc2nccnc2c1 [Example 175, (S)-(3-(3,5-Dichlorophenyl)-2,7-dimethyl-2,4,5,7-tetrahydro-6H-pyrazolo[3,4-c]pyridin-6-yl)(quinoxalin-6-yl)methanone] | 0.00624 |
| C[C@H]1c2nn(C)c(-c3cc(F)c(F)c(F)c3)c2CCN1C(=O)c1cccc(-n2nccn2)c1 [Example 283, [(7S)-2,7-Dimethyl-3-(3,4,5-trifluorophenyl)-5,7-dihydro-4H-pyrazolo[3,4-c]pyridin-6-yl]-[3-(triazol-2-yl)phenyl]methanone] | 0.0191 |
| Cn1nc2c(c1-c1cc3ccccc3[nH]1)CCN(C(=O)c1ccc3ncccc3c1)C2 [Example 104, (3-(1H-Indol-2-yl)-2-methyl-2,4,5,7-tetrahydro-6H-pyrazolo[3,4-c]pyridin-6-yl)(quinolin-6-yl)methanone] | 0.791 |
| C[C@H]1c2nn(C)c(-c3cc(F)cc(F)c3)c2CCN1C(=O)c1ccc(OCCF)cc1 [Example 138, (S)-(3-(3,5-Difluorophenyl)-2,7-dimethyl-2,4,5,7-tetrahydro-6H-pyrazolo[3,4-c]pyridin-6-yl)(4-(2-fluoroethoxy)phenyl)methanone] | 0.0395 |
| Cc1cc(C(=O)N2CCc3c(nn(C)c3-c3cc(F)c(F)c(F)c3)[C@@H]2C)c2cccc(F)c2n1 [Example 241, (S)-(2,7-Dimethyl-3-(3,4,5-trifluorophenyl)-2,4,5,7-tetrahydro-6H-pyrazolo[3,4-c]pyridin-6-yl)(8-fluoro-2-methylquinolin-4-yl)methanone] | 0.00656 |
| C[C@H]1c2nn(C)c(-c3cc(F)c(F)c(F)c3)c2CCN1C(=O)c1cccc2cnn(C)c12 [Example 209, (S)-(2,7-Dimethyl-3-(3,4,5-trifluorophenyl)-2,4,5,7-tetrahydro-6H-pyrazolo[3,4-c]pyridin-6-yl)(1-methyl-1H-indazol-7-yl)methanone] | 0.0111 |
| Cn1nc2c(c1-c1ccccc1)CCN(C(=O)c1c[nH]c3cccc(Cl)c13)C2 [Example 49, (4-Chloro-1H-indol-3-yl)(2-methyl-3-phenyl-2,4,5,7-tetrahydro-6H-pyrazolo[3,4-c]pyridin-6-yl)methanone] | 0.461 |
| C[C@H]1c2nn(C)c(-c3cc(F)c(F)c(F)c3)c2CCN1C(=O)c1cccc(-c2cc[nH]n2)c1 [Example 270, [(7S)-2,7-Dimethyl-3-(3,4,5-trifluorophenyl)-5,7-dihydro-4H-pyrazolo[3,4-c]pyridin-6-yl]-[3-(1H-pyrazol-3-yl)phenyl]methanone] | 0.00907 |
| Cn1nc2c(c1-c1ccccc1)CCN(C(=O)c1ccc3ncccc3c1)C2 [Example 90, (2-Methyl-3-phenyl-2,4,5,7-tetrahydro-6H-pyrazolo[3,4-c]pyridin-6-yl)(quinolin-6-yl)methanone] | 0.227 |
| Cc1ccc(C(=O)N2CCc3c(nn(C)c3-c3cc(F)c(F)c(F)c3)[C@@H]2C)cc1-n1cnnc1 [Example 294, [(7S)-2,7-Dimethyl-3-(3,4,5-trifluorophenyl)-5,7-dihydro-4H-pyrazolo[3,4-c]pyridin-6-yl]-[4-methyl-3-(1,2,4-triazol-4-yl)phenyl]methanone] | 1.66 |
